Structures can show the parent of a compound that is named as a salt. Where two headings read alike, the source gives them in different places.
What was measured:
[1] = target: sphingosine kinase 1 (SK1) (Homo sapiens, UniProt Q9NYA1); experiment: In vitro inhibition of purified recombinant sphingosine kinase 1; format: biochemical; settings: purified recombinant enzyme
[2] = target: T1, sphingosine kinase 2 (SK2) (Homo sapiens, UniProt Q9NRA0); experiment: In vitro inhibition of purified recombinant sphingosine kinase 2; format: biochemical; settings: purified recombinant enzyme
T1 sequence (Q9NRA0 1-654): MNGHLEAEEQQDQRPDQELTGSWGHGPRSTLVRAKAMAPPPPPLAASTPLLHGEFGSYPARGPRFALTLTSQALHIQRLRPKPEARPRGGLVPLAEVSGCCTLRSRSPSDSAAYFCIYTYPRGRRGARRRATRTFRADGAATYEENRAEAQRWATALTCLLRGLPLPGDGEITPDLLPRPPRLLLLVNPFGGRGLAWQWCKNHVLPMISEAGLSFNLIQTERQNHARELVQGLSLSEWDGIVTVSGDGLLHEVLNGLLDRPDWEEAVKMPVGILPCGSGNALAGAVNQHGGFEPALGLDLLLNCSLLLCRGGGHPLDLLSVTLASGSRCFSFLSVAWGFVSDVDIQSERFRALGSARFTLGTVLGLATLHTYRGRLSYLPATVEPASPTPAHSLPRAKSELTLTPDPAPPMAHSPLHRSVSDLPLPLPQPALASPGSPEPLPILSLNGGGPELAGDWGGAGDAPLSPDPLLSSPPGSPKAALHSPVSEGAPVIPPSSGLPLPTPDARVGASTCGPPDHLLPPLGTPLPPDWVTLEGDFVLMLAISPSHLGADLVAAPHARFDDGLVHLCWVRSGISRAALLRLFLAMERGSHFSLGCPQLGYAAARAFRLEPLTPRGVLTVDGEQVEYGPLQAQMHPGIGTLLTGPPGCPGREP

[3] = test system: prostate cancer (DU145) cells over-expressing acid ceramidase; experiment: BD FALCON FLUOROBLOK migration assay; format: cell-based, human; settings: 5 μM pretreatment overnight; 16/24 hours incubation; FIG. 8
Experimental: NT represents non-treated cells.
The presently disclosed guanidino-sphingosines were determined to be capable of inhibiting cell migration of cancer cells overexpressing acid ceramidase. The BD™ FALCON™ (Becton Dickinson and Company, Franklin Lakes, N.J., United States of America) migration assay (using FLUOROBLOK™ polyethylene terphthalate (PET) inserts (8.0 μm)) was performed with prostate cancer (DU145) cells over-expressing acid ceramidase. […] After labeling the cells with carboxyfluorescein diacetate succinimidyl ester fluorscent dye (CFMDA), the cells were seeded on the top well of BDTM FLUOROBLOK™ PET membrane collagen-coated inserts. The negative control consisted of serum free media loaded in the bottom well and 10% FCS-enriched media was used as the positive control. After 16/24 hours incubation, the plate was read from the bottom (485/530 nm) and fluorescence was quantified.

[4] = test system: MCF7 cells; experiment: Endogenous ceramide level in cells after treatment; format: cell-based, human; settings: 24 hour treatment, 0-25 μM, FIG. 7
Text: The administration of guanidino-sphingosines to mammalian cells at concentrations capable of inhibiting SK1 or SK2 were also found to increase the level of endogenous Cer in the cells.

sphingosine kinase 1 (SK1), sequence (Q9NYA1 whole entry, species assumed): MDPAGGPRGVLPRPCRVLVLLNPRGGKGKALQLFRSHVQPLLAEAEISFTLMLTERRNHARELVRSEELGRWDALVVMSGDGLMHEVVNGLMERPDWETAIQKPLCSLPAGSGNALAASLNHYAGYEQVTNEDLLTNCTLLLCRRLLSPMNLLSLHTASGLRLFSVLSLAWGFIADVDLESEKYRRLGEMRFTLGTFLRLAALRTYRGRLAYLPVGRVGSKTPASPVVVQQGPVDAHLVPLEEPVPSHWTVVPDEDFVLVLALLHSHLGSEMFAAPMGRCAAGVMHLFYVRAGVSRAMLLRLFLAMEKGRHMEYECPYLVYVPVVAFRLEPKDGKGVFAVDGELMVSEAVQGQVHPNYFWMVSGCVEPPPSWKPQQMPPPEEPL

IC50 ([1]; read-out: IC50 on SK1) [nM] | IC50 [2] [nM] | IC50 ([1]; read-out: In Vitro IC50 on Sphingosine Kinase 1) [nM] | Compound | migration rate of DU145 cells [3] | endogenous C16-ceramide levels [4]
40 | 300 | – | CCCCCCCCCCCCC/C=C/[C@H](O)[C@@H](CO)NC(=N)N [LCL351, L-erythro-2-N-(1′-carboxamidino)-sphingosine hydrochloride] | decreases the migration rate | elevation
– | 740 | 420 | CCCCCCCCCCCCC/C=C/[C@@H](O)[C@H](CO)NC(=N)N [LCL146, D-erythro-2-N-(1′-carboxamidino)-sphingosine hydrochloride] | – | elevation
